Experimental data reported in patent US11529363B2, “Methods of treating cancer in pediatric patients” (ARIAD Pharmaceuticals, Inc., priority 2018, dated 2022).

Assays:
[1] = pediatric, 280 mg/m^2; cited from earlier work
ALK+ NSCLC = test: phase 2 study AP26113-13-201 (ALTA trial) in adult patients with ALK+ NSCLC refractory to crizotinib; format: in vivo, human
Protocol: In the pivotal phase 2 study in adults with ALK+ NSCLC, 2 dose regimens were evaluated: (1) 90 mg QD; (2) 90 mg QD in Week 1 followed by escalation to 180 mg QD for those patients tolerating the 7-day 90 mg QD lead in. […] To mitigate the risk for EOPEs in pediatric patients, the doses of brigatinib selected for Week 1 of treatment are informed by adult clinical experience and designed to achieve systemic exposures not exceeding those at the 90 mg daily dose in adults.

[2] = cross-study comparison of brigatinib exposure, oral solution (AP26113-13-104) vs tablet (AP26113-16-110); format: in vivo, human
[3] = first-in-human Study AP26113-11-101, tolerated dose in adults
Protocol: One additional dose level is planned if the 40 mg/m^2 QD→80 mg/m^2 QD dose is tolerated.

ALK = ALK (Homo sapiens, UniProt Q9UM73); conditions: in vitro studies; cited from earlier work
ALK, sequence (Q9UM73 19-1620): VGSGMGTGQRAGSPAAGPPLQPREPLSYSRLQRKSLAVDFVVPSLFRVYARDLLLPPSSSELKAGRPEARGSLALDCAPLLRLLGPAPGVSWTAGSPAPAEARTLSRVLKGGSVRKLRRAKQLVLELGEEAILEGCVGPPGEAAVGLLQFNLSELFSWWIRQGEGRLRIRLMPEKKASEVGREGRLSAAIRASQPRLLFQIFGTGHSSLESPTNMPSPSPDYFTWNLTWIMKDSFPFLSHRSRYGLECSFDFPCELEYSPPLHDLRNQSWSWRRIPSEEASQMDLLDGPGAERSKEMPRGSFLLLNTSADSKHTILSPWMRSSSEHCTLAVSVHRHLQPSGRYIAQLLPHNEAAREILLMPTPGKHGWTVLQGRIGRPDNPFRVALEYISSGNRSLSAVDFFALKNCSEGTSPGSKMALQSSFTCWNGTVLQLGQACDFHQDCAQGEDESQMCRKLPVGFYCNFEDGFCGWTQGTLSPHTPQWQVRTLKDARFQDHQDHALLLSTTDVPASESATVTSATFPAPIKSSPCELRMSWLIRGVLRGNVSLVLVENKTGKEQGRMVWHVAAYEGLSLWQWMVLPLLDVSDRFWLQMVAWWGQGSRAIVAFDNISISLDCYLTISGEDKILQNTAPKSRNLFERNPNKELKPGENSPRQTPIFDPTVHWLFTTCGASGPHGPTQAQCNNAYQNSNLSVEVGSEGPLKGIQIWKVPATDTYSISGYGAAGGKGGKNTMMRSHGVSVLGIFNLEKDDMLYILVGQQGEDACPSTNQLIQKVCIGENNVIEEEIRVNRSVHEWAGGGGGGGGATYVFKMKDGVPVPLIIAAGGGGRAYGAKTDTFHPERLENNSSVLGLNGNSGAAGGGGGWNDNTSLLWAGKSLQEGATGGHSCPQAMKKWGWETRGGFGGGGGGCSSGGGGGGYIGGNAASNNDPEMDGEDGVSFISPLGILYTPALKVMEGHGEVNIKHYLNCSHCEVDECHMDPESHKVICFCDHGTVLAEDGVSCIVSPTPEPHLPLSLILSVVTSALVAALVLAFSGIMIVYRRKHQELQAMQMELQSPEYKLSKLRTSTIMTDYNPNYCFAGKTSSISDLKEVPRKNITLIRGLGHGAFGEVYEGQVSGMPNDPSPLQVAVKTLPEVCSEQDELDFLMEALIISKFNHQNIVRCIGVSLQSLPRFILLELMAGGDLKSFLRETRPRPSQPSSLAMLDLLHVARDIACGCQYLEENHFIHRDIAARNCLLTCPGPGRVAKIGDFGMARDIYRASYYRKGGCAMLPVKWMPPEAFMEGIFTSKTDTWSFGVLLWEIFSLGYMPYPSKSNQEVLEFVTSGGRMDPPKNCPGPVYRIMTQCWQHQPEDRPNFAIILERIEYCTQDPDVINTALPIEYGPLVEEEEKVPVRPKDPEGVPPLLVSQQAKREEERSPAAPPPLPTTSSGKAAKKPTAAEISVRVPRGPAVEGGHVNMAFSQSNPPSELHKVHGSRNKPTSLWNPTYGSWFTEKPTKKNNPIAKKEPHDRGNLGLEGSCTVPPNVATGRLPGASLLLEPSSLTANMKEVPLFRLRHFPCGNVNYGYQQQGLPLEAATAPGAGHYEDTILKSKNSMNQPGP

[4] = system: secondary ALK mutants of EML4-ALK; conditions: at relevant levels of exposure achieved in patients; cited from earlier work
[5] = 90→180 mg QD, adult ALK+ NSCLC refractory to crizotinib

Structure (SMILES) | systemic exposure at MTD/RP2D higher than adult clinical exposures at 250 mg BID [1] [%] | duration of response (DOR) (ALK+ NSCLC; [5]) [months] | investigator-assessed confirmed ORR (ALK+ NSCLC; [5]) [%] | progression-free survival (PFS) (ALK+ NSCLC; [5]) [months] | PFS at 180 mg QD versus 90 mg QD (ALK+ NSCLC; pivotal phase 2 study, adults with ALK+ NSCLC) | relative bioavailability of oral solution, AUC higher in reference to the tablet ([2]; oral solution vs tablet, adults) | oral solution/tablet AUC ratio ([2]; relative bioavailability factor) | highest acceptably tolerated dose [3] [mg QD] | ALK inhibitor potency compared with crizotinib, ceritinib and alectinib (ALK) | activity against 17 secondary ALK mutants of EML4-ALK [4]
C[C@@H](Oc1cc(-c2cnn(C3CCNCC3)c2)cnc1N)c1c(Cl)ccc(F)c1Cl [crizotinib] | ~50 | – | – | – | – | – | – | – | – | –
COc1cc(N2CCC(N3CCN(C)CC3)CC2)ccc1Nc1ncc(Cl)c(Nc2ccccc2P(C)(C)=O)n1 [brigatinib, 5-chloro-N4-[2-(dimethylphosphoryl)phenyl]-N2-{2-methoxy-4-[4-(4-methylpiperazin-1-yl)piperidin-1-yl]phenyl}pyrimidine-2,4-diamine] | – | 13.8 | 55.5 | 15.6 | longer PFS at 180 mg QD | approximately 42% | 1.42 | 240 | more potent ALK inhibitor than crizotinib, ceritinib, and alectinib | maintain substantial activity against all 17 secondary ALK mutants
